This passage reports EC50 results from PMC11602654 (The Journal of General Physiology, 2024).

Assay [1] concerns the target T1, β3(Q64R+G127T) homomeric GABAA receptor (Homo sapiens, UniProt P28472, G152T/Q89R).
T1 sequence (P28472 26-473 Q89R/G152T): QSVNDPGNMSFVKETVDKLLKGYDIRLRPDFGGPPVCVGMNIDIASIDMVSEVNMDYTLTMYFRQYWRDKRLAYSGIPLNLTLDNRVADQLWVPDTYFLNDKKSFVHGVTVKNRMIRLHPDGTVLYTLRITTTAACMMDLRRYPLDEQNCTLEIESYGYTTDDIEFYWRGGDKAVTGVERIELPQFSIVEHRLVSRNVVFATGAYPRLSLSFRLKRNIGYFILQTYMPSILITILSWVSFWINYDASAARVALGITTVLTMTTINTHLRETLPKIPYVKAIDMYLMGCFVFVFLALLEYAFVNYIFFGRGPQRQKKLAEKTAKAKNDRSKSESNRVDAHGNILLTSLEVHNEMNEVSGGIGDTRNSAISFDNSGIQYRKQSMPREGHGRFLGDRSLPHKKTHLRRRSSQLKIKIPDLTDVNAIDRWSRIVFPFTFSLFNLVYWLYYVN
The assay can be described thus: two-electrode voltage clamp, concentration-response. The class given is cell-based. Background: In two-electrode clamp one electrode senses voltage and the other passes current.

The next assay has as its target α1β2γ2L GABAA receptor (Rattus norvegicus, UniProt P62813+P63138). Described as above. The class given is cell-based.

Regarding `NCCc1c[nH]cn1` [histamine], in assay [1], a half-maximal effect (EC50) was put at 9 ± 0.5 mM.

In the case of `O=S(=O)(O)C1CCNCC1` [P4S, piperidine-4-sulfonic acid], the midpoint of the response on α1β2γ2L GABAA receptor, the EC50, lay at 0.033 ± 0.012 mM.
